In PubChem BioAssay (NCI) one finds GI50 and TGI data, which are given here for eight compounds.

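The compound was tested at five concentrations on cells cultured in 96-well plates, with a 48-hour exposure period. GI50 marks 50% less growth. TGI: total growth inhibition.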

Among the test systems are 786-0 renal; COLO 205 colon; LOX IMVI melanoma; MALME-3M melanoma; MCF7 breast; OVCAR-4 ovarian; PC-3 prostate; RPMI-8226 leukemia; SK-OV-3 ovarian; SW-620 colon.
Holding throughout (assay): NCI-60 cell line screen, 48 h

Take `COC(=O)c1c(-c2cccs2)oc(-c2cccs2)c1C(=O)OC`: the GI50 was 18 µM with 786-0 renal; 26.7 µM with COLO 205 colon; 31.9 µM in the experiment on LOX IMVI melanoma; 25 µM in the experiment with MALME-3M melanoma; 13.2 µM in the experiment on MCF7 breast; 77.8 µM in the experiment on OVCAR-4 ovarian. Moreover, the GI50 in the experiment on PC-3 prostate is 26.3 µM; with RPMI-8226 leukemia, 13.1 µM; in the experiment on SK-OV-3 ovarian, more than 100 µM; in the experiment with SW-620 colon, 31 µM. Besides, the TGI in the experiment with 786-0 renal is 49.8 µM; in the experiment on COLO 205 colon, more than 86.3 µM; in the experiment with LOX IMVI melanoma it was more than 63.1 µM; in the experiment with MALME-3M melanoma, 64 µM; with MCF7 breast, more than 100 µM; in the experiment with OVCAR-4 ovarian, more than 100 µM. For the same compound, the TGI in the experiment with PC-3 prostate is more than 100 µM; in the experiment with RPMI-8226 leukemia it was 92.7 µM; with SK-OV-3 ovarian, more than 100 µM; in the experiment on SW-620 colon it was more than 100 µM.
In the case of `O=C(Nc1ccccc1I(=O)=O)C1CCCCC1`, the GI50 with 786-0 renal, in the experiment with COLO 205 colon, with LOX IMVI melanoma, with MALME-3M melanoma, in the experiment on MCF7 breast and in the experiment with OVCAR-4 ovarian was more than 100 µM in each case. The GI50 in the experiment with PC-3 prostate, in the experiment with RPMI-8226 leukemia, in the experiment on SK-OV-3 ovarian and with SW-620 colon was more than 100 µM throughout. Moreover, the TGI in the experiment on 786-0 renal, in the experiment with COLO 205 colon, in the experiment on LOX IMVI melanoma, in the experiment on MALME-3M melanoma, in the experiment on MCF7 breast and in the experiment with OVCAR-4 ovarian was more than 100 µM each time. For the same compound, the TGI in the experiment on PC-3 prostate, in the experiment with RPMI-8226 leukemia, in the experiment with SK-OV-3 ovarian and in the experiment with SW-620 colon was more than 100 µM each time.
Regarding `O=C(O)/C(Cc1cn[nH]n1)=N\O`, the TGI with 786-0 renal, with COLO 205 colon, with LOX IMVI melanoma, in the experiment with MALME-3M melanoma, in the experiment on MCF7 breast and in the experiment with OVCAR-4 ovarian was more than 100 µM throughout. Further, the TGI with PC-3 prostate, with RPMI-8226 leukemia, in the experiment on SK-OV-3 ovarian and in the experiment on SW-620 colon was more than 100 µM each time.
In the case of `C=C1C(O)C2CC(C)(CO)C(=O)C2=C(CC(C)C)C12CC2` (stereo not given), the GI50 in the experiment with 786-0 renal is more than 100 µM; in the experiment on COLO 205 colon, more than 100 µM; with LOX IMVI melanoma, 57.9 µM; in the experiment with MALME-3M melanoma, 28.3 µM; with MCF7 breast, 63.9 µM; in the experiment with OVCAR-4 ovarian, more than 100 µM. The GI50 in the experiment on PC-3 prostate is 56 µM; with RPMI-8226 leukemia, 29.1 µM; in the experiment with SK-OV-3 ovarian, more than 100 µM; with SW-620 colon it was 62.3 µM. For the same compound, the TGI in the experiment on 786-0 renal, in the experiment on COLO 205 colon, with LOX IMVI melanoma, with MALME-3M melanoma, in the experiment with MCF7 breast and in the experiment with OVCAR-4 ovarian was more than 100 µM each time. Further, the TGI with PC-3 prostate, in the experiment with RPMI-8226 leukemia, in the experiment on SK-OV-3 ovarian and in the experiment with SW-620 colon was more than 100 µM in each case.
`CCCCC#Cc1c(I)n(C)c(=O)[nH]c1=O`: the GI50 in the experiment on 786-0 renal was 16.5 µM; in the experiment with COLO 205 colon, 1.93 µM; in the experiment with LOX IMVI melanoma it was 1.62 µM; in the experiment with MALME-3M melanoma, 1.94 µM; with MCF7 breast, 9.6 µM; in the experiment on OVCAR-4 ovarian, 1.76 µM. In addition, the GI50 in the experiment with PC-3 prostate was 12.8 µM; in the experiment with RPMI-8226 leukemia, 2.37 µM; in the experiment on SK-OV-3 ovarian it was 20.3 µM; in the experiment with SW-620 colon, 1.66 µM. The TGI with 786-0 renal was 30.1 µM; with COLO 205 colon, 3.58 µM; in the experiment with LOX IMVI melanoma, 2.97 µM; in the experiment with MALME-3M melanoma, 3.55 µM; in the experiment with MCF7 breast, 25.4 µM; in the experiment on OVCAR-4 ovarian, 3.15 µM. Also, the TGI turned out to be 25.4 µM in the experiment with PC-3 prostate, 8.41 µM in the experiment on RPMI-8226 leukemia, 34.6 µM in the experiment with SK-OV-3 ovarian and 3.05 µM with SW-620 colon.
As for `CN1Cc2ccccc2/C=C\c2ccccc21`, the TGI is more than 100 µM in the experiment on 786-0 renal; more than 100 µM in the experiment on COLO 205 colon; more than 100 µM with LOX IMVI melanoma; more than 100 µM in the experiment on MALME-3M melanoma; 67.9 µM in the experiment with MCF7 breast; more than 100 µM in the experiment on OVCAR-4 ovarian. The TGI is more than 100 µM in the experiment with PC-3 prostate, 68.7 µM in the experiment on RPMI-8226 leukemia, more than 100 µM with SK-OV-3 ovarian and more than 100 µM with SW-620 colon.
In the case of `COc1ccc(C(=O)c2cc(C)c(OC)c(C)c2)c(OC)c1NC(C)=O`, the GI50 was 0.0562 µM in the experiment with 786-0 renal; 0.299 µM with COLO 205 colon; 0.526 µM in the experiment with LOX IMVI melanoma; 1.17 µM with MALME-3M melanoma; 0.491 µM with MCF7 breast; 7.68 µM with OVCAR-4 ovarian. Further, the GI50 is 0.0776 µM with PC-3 prostate, 0.785 µM with RPMI-8226 leukemia, 0.0674 µM in the experiment on SK-OV-3 ovarian and 0.19 µM in the experiment on SW-620 colon. The TGI in the experiment with 786-0 renal is more than 100 µM; in the experiment with COLO 205 colon it was 1.28 µM; in the experiment with LOX IMVI melanoma, more than 100 µM; with MALME-3M melanoma, more than 100 µM; in the experiment on MCF7 breast it was more than 100 µM; with OVCAR-4 ovarian, more than 100 µM. In addition, the TGI with PC-3 prostate, in the experiment with RPMI-8226 leukemia, in the experiment on SK-OV-3 ovarian and in the experiment with SW-620 colon was more than 100 µM each time.
Turning to `O=C(CN(/C=C/C(=O)C(F)(F)F)c1ccc(Cl)cc1)c1ccc(Cl)c(Cl)c1`, the GI50 with 786-0 renal was 11.5 µM; in the experiment on COLO 205 colon it was 14.2 µM; in the experiment on LOX IMVI melanoma, 4.13 µM; with MALME-3M melanoma, 9.98 µM; with MCF7 breast it was 3.42 µM; in the experiment with OVCAR-4 ovarian, 8.71 µM. In addition, the GI50 with PC-3 prostate was 4.25 µM; in the experiment on RPMI-8226 leukemia, 3.74 µM; with SK-OV-3 ovarian, 17.1 µM; with SW-620 colon, 13.2 µM. Also, the TGI in the experiment on 786-0 renal was determined as 24.5 µM; in the experiment on COLO 205 colon, 39.4 µM; in the experiment on LOX IMVI melanoma, 16.6 µM; in the experiment with MALME-3M melanoma, 22.3 µM; in the experiment on MCF7 breast, 16.6 µM; with OVCAR-4 ovarian it was 28.1 µM. Also, the TGI amounted to 16.7 µM with PC-3 prostate, 17 µM in the experiment with RPMI-8226 leukemia, 35.2 µM in the experiment with SK-OV-3 ovarian and 30.5 µM in the experiment with SW-620 colon.
